For assay [1], the target named is rat brain cortical membranes ([35S]-TBPS binding, GABA receptor complex). Kind of assay: Steroid inhibition of [35S]-TBPS binding. The note with it: 3 nM [35S]-TBPS, in the presence of 5 μM GABA. On the procedure:
TBPS binding assays using rat brain cortical membranes in the presence of 5 μM GABA has been described (Gee et al, J. Pharmacol. Exp. Ther. 1987, 241, 346-353; Hawkinson et al, Mol. Pharmacol. 1994, 46, 977-985; Lewin, A. H et al., Mol. Pharmacol. 1989, 35, 189-194).
Briefly, cortices are rapidly removed following decapitation of carbon dioxide-anesthetized Sprague-Dawley rats (200-250 g). The cortices are homogenized in 10 volumes of ice-cold 0.32 M sucrose using a glass/teflon homogenizer and centrifuged at 1500×g for 10 min at 4° C. The resultant supernatants are centrifuged at 10,000×g for 20 min at 4° C. to obtain the P2 pellets. The P2 pellets are resuspended in 200 mM NaCl/50 mM Na-K phosphate pH 7.4 buffer and centrifuged at 10,000×g for 10 min at 4° C. This washing procedure is repeated twice and the pellets are resuspended in 10 volumes of buffer. Aliquots (100 μL) of the membrane suspensions are incubated with 3 nM [^35S]-TBPS and 5 μL aliquots of test drug dissolved in dimethyl sulfoxide (DMSO) (final 0.5%) in the presence of 5 μM GABA. The incubation is brought to a final volume of 1.0 mL with buffer. […] Filter bound radioactivity is measured by liquid scintillation spectrometry. […]

For another assay, the target named is α4β3δ GABAA receptor (Homo sapiens (Human), UniProt P28472+P48169). Briefly: Patch clamp electrophysiology of recombinant α4β3δ GABAA receptors in CHO cells. The assay is classed as cell-based. The note with it: 10 μM compound, GABA EC20 2 μM; for activity at 10 µM: manual patch, read-out: α4β3δ GABA Manual Patch in CHO (Efficacy at 10 μM). On the procedure:
Cellular electrophysiology is used to measure the pharmacological properties of our GABAA receptor modulators in heterologous cell systems. Each compound is tested for its ability to affect GABA mediated currents at a submaximal agonist dose (GABA EC20=2 μM). LTK cells are stably transfected with the α1β2γ2 subunits of the GABA receptor and CHO cells are transiently transfected with the α4β3δ subunits via the Lipofecatamine method. Cells were passaged at a confluence of about 50-80% and then seeded onto 35 mm sterile culture dishes containing 2 ml culture complete medium without antibiotics or antimycotics. Confluent clusters of cells are electrically coupled (Pritchett et al., 1988). Because responses in distant cells are not adequately voltage clamped and because of uncertainties about the extent of coupling (Verdoorn et al., 1990), cells were cultivated at a density that enables the recording of single cells (without visible connections to other cells).
Whole cell currents were measured with HEKA EPC-10 amplifiers using PatchMaster software or by using the high throughput QPatch platform (Sophion). Bath solution for all experiments contained (in mM): NaCl 137 mM, KCl 4 mM, CaCl2 1.8 mM, MgCl2 1 mM, HEPES 10 mM, D-Glucose 10 mM, pH (NaOH) 7.4. In some cases 0.005% cremophor was also added. Intracellular (pipette) solution contained: KCl 130 mM, MgCl2 1 mM, Mg-ATP 5 mM, HEPES 10 mM, EGTA 5 mM, pH 7.2. During experiments, cells and solutions were maintained at room temperature (19° C.-30° C.). For manual patch clamp recordings, cell culture dishes were placed on the dish holder of the microscope and continuously perfused (1 ml/min) with bath solution. After formation of a Gigaohm seal between the patch electrodes and the cell (pipette resistance range: 2.5 MΩ-6.0 MΩ; seal resistance range: >1 GΩ) the cell membrane across the pipette tip was ruptured to assure electrical access to the cell interior (whole-cell patch-configuration). For experiments using the QPatch system, cells were transferred as suspension to the QPatch system in the bath solution and automated whole cell recordings were performed.
Cells were voltage clamped at a holding potential of −80 mV. For the analysis of test articles, GABA receptors were stimulated by 2 μM GABA after sequential pre-incubation of increasing concentrations of the test article. Pre-incubation duration was 30 s and the duration of the GABA stimulus was 2 s. Test articles were dissolved in DMSO to form stock solutions (10 mM). Test articles were diluted to 0.01, 0.1, 1, and 10 μM in bath solution. All concentrations of test articles were tested on each cell. The relative percentage potentiation was defined as the peak amplitude in response to GABA EC20 in the presence of the test article divided by the peak amplitude in response to GABA EC20 alone, multiplied by 100.

A further assay addresses α1β2γ2 GABAA receptor (Homo sapiens (Human), UniProt P14867+P47870). Briefly: Patch clamp electrophysiology of recombinant α1β2γ2 GABAA receptors in LTK cells. The assay is classed as cell-based. As to conditions: 10 μM compound, Qpatch, Ltk cells, GABA EC20 2 μM; for activity at 10 µM: LTK, read-out: α1β2γ2 GABA Qpatch in Ltk (Efficacy at 10 μm). An outline of the steps:
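Whole-cell voltage clamp at −80 mV, room temperature, in LTK cells stably expressing α1β2γ2 or CHO cells transiently expressing α4β3δ, manual or QPatch. Test article (0.01–10 μM, increasing, 30 s preincubation) then 2 μM GABA (EC20) for 2 s; potentiation = peak current with compound relative to GABA alone ×100.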

Molecules are shown by their SMILES.

By IC50 is commonly meant the concentration that gives 50% inhibition. Consider `C[C@@]1(O)CC[C@H]2[C@H](CC[C@@H]3[C@@H]2CC[C@]2(C)[C@@H](C(=O)Cn4nc5cc(F)c(F)cc5n4)CC[C@@H]32)C1` [SA-53], for which, in assay [1], the IC50 is 10 to 50 nM.

For the compound `C[C@@]1(O)CC[C@H]2[C@H](CC[C@@H]3[C@@H]2CC[C@]2(C)[C@@H](C(=O)Cn4nc5cc(Cl)cnc5n4)CC[C@@H]32)C1` [SA-57], the figures for the activity at 10 µM on α4β3δ GABAA receptor and on α1β2γ2 GABAA receptor were 100 to 500% and over 500%, respectively.

For the compound `C[C@@]1(O)CC[C@H]2[C@H](CC[C@@H]3[C@@H]2CC[C@]2(C)[C@@H](C(=O)Cn4nc5cccc(F)c5n4)CC[C@@H]32)C1` [SA-66], the activity at 10 µM at α4β3δ GABAA receptor and at α1β2γ2 GABAA receptor was over 500% throughout.

`Cc1cccc2nn(CC(=O)[C@H]3CC[C@H]4[C@@H]5CC[C@@H]6C[C@](C)(O)CC[C@@H]6[C@H]5CC[C@]34C)nc12` [SA-69]: the activity at 10 µM on α4β3δ GABAA receptor and at α1β2γ2 GABAA receptor was 100 to 500% in each case.

As to `C[C@@]1(O)CC[C@H]2[C@H](CC[C@@H]3[C@@H]2CC[C@]2(C)[C@@H](C(=O)Cn4nc5cccc(Cl)c5n4)CC[C@@H]32)C1` [SA-78], the activity at 10 µM at α4β3δ GABAA receptor and on α1β2γ2 GABAA receptor was 100 to 500% in each case.

As for `C[C@]12CC[C@H]3[C@@H](CC[C@@H]4C[C@@](O)(CF)CC[C@@H]43)[C@@H]1CC[C@@H]2C(=O)Cn1nc2ccccc2n1` [SA-80], the activity at 10 µM at α4β3δ GABAA receptor and on α1β2γ2 GABAA receptor was over 500% throughout.

Turning to `C[C@]12CC[C@H]3[C@@H](CC[C@@H]4C[C@@](O)(CF)CC[C@@H]43)[C@@H]1CC[C@@H]2C(=O)Cn1cc2ncccc2n1` [SA-83], the activity at 10 µM at α4β3δ GABAA receptor and on α1β2γ2 GABAA receptor was 100 to 500% in each case.

For the compound `COC[C@@]1(O)CC[C@H]2[C@H](CC[C@@H]3[C@@H]2CC[C@]2(C)[C@@H](C(=O)Cn4nc5ccncc5n4)CC[C@@H]32)C1` [SA-125], the activity at 10 µM at α4β3δ GABAA receptor is 100 to 500%; at α1β2γ2 GABAA receptor, over 500%.

For `C[C@@]1(O)CC[C@H]2[C@@H](CC[C@@H]3[C@@H]2CC[C@]2(C)[C@@H](C(=O)Cn4cc5ncccc5n4)CC[C@@H]32)C1` [SB-4], at α4β3δ GABAA receptor, the “α4β3δ GABA Manual Patch in CHO (Efficacy at 10 μM)” value was “C (“C” indicates an efficacy value of >500%)”. The “α1β2γ2 GABA Qpatch in Ltk (Efficacy at 10 μm)” value on α1β2γ2 GABAA receptor was “C (“C” indicates an efficacy value of >500%)”.

For the compound `C[C@@]1(O)CC[C@H]2[C@@H](CC[C@@H]3[C@@H]2CC[C@]2(C)[C@@H](C(=O)Cn4nc5ccncc5n4)CC[C@@H]32)C1` [SB-8], the activity at 10 µM at α4β3δ GABAA receptor is 100 to 500%; at α1β2γ2 GABAA receptor, over 500%.

On to `C[C@@]1(O)CC[C@H]2[C@@H](CC[C@@H]3[C@@H]2CC[C@]2(C)[C@@H](C(=O)Cn4cc5ccncc5n4)CC[C@@H]32)C1` [SB-9], for which the “α4β3δ GABA Manual Patch in CHO (Efficacy at 10 μM)” value at α4β3δ GABAA receptor was “B (“B” indicates an efficacy value of >100-500%)”. For the same compound, the “α1β2γ2 GABA Qpatch in Ltk (Efficacy at 10 μm)” value at α1β2γ2 GABAA receptor is recorded as “C (“C” indicates an efficacy value of >500%)”.

For `C[C@]12CC[C@H]3[C@@H](CC[C@H]4C[C@@](O)(CF)CC[C@@H]43)[C@@H]1CC[C@@H]2C(=O)Cn1nc2ccncc2n1` [SB-15], the activity at 10 µM at α4β3δ GABAA receptor and at α1β2γ2 GABAA receptor was 100 to 500% throughout.

Turning to `COC[C@@]1(O)CC[C@H]2[C@@H](CC[C@@H]3[C@@H]2CC[C@]2(C)[C@@H](C(=O)Cn4cc5ccncc5n4)CC[C@@H]32)C1` [SB-45], the activity at 10 µM at α4β3δ GABAA receptor and on α1β2γ2 GABAA receptor was 100 to 500% each time.

Turning to `COC[C@@]1(O)CC[C@H]2[C@@H](CC[C@@H]3[C@@H]2CC[C@]2(C)[C@@H](C(=O)Cn4nc5ccccc5n4)CC[C@@H]32)C1` [SB-50], the values for the activity at 10 µM at α4β3δ GABAA receptor and on α1β2γ2 GABAA receptor were 100 to 500% and 10 to 100%, respectively.

In the case of `C[C@]12CC[C@H]3[C@@H](CC[C@H]4C[C@@](O)(CF)CC[C@@H]43)[C@@H]1CC[C@@H]2C(=O)Cn1cc2ccc(F)cc2n1` [SG-20], the activity at 10 µM on α4β3δ GABAA receptor and on α1β2γ2 GABAA receptor was 100 to 500% throughout.

Source of the values: patent US11261211B2, “19-NOR neuroactive steroids and methods of use thereof” (Sage Therapeutics, Inc., priority 2013, dated 2022).
